According to patent EP0308983A2, “NMR imaging with Mn(II) coordination compositions” (priority 1987, dated 1989):

How the values were obtained:
[1] = Paramagnetic relaxation properties in human plasma at 37°C; assay type: physicochemical; settings: for T₂ value / T₁ value / R₁ / R₂ / T₁ changed by (repeat measurement) / T₂ changed by (repeat measurement): 37°C; for T₁ value: triplicate; for T₁ changed by (repeat measurement) / T₂ changed by (repeat measurement): repeat measurement 80 minutes later; for T₂ relaxivity in plasma, fold greater than GdDTPA: versus GdDTPA; for T₁ relaxivity in plasma, fold greater than GdDTPA: versus gadolinium diethylenetriaminepentaacetic acid chelate (GdDTPA)
[2] = Paramagnetic relaxation properties in water at 10 MHz (0.15T), RADX spin analyzer; assay type: physicochemical; settings: for spin-lattice (T₁) relaxation value / spin-spin (T₂) relaxation value / millimolar relaxivity for T₁ / millimolar relaxivity for T₂ / Relaxivity (mM⁻¹sec⁻¹) Spin-Lattice / Relaxivity (mM⁻¹sec⁻¹) Spin-Spin: 10 MHz (0.15T); for millimolar relaxivity for T₁ / millimolar relaxivity for T₂: in water; for millimolar relaxivity for T₁: calculated from T₁ and concentration; for millimolar relaxivity for T₂: calculated from T₂ and concentration; for Spin-Spin Relaxivity: 0.15 T (10 MHz)
Method: The paramagnetic relaxation properties of [manganese(II)·(H₂O)₂·(L-alanine)₂]⁺²(Cl₂)⁻² in water were measured at 10 MHz (0.15T) with a spin analyzer (RADX; Houston, TX) at 37°C. After thermal equilibrium, the spin-lattice (T₁) and spin-spin (T₂) relaxation values were measured in triplicate.
The paramagnetic relaxation of the title compound in water was measured at 10 MHz (0.15T) with a spin analyzer (RADX; Houston, TX). After thermal equilibrium, the spin-lattice (T₁) and spin-spin (T₂) relaxation values were measured.
Relaxivity was measured at 10 MHz (0.15T) as described in Example 10.
The relaxivity of the title compound was performed at 0.15 T (10 MHz) with a RADX Spin Analyzer (Houston, TX) at 37°C.

[3] = 0.94 mM solution in water, 37°C, triplicate, mean +/- SD
[4] = 0.90 mM solution in water, 37°C, triplicate, mean +/- SD
[5] = 0.97 mM solution in water, 37°C, triplicate, mean +/- SD
[6] = 0.98 mM solution in water, 37°C, triplicate, mean +/- SD
[7] = 0.989 mM solution in water, 37°C, triplicate, mean +/- SD

NC(=O)C[C@H]([NH3+])C(=O)[O-].NC(=O)C[C@H]([NH3+])C(=O)[O-].O.O.[Cl-].[Cl-].[Mn+2] [Manganese(II)·(H₂O)₂·(L-asparginine)₂]⁺²(Cl₂)⁻²]
T₂ value ([1]; 90 µM final concentration): 190 ± 3 ms | T₁ value ([1]; 90 µM final concentration): 244 ± 20 ms | R₁ [1]: 45.5 mM⁻¹ s⁻¹ | R₂ [1]: 58.5 mM⁻¹ s⁻¹ | T₁ changed by (repeat measurement) [1]: 7% | T₂ changed by (repeat measurement) [1]: 2% | T₂ relaxivity in plasma, fold greater than GdDTPA [1]: 12.2 fold | T₁ relaxivity in plasma, fold greater than GdDTPA [1]: 9.5 fold | spin-lattice (T₁) relaxation value [2, 3]: 117 ± 5 ms | spin-spin (T₂) relaxation value [2, 3]: 29 ± 1 ms | millimolar relaxivity for T₁ [2]: 9.09 mM⁻¹ s⁻¹ | millimolar relaxivity for T₂ [2]: 36.7 mM⁻¹ s⁻¹

N[C@@H](CC(=O)O)C(=O)O.N[C@@H](CC(=O)O)C(=O)O.O.O.[Cl-].[Cl-].[Mn+2] [Manganese(II)·(H₂O)₂·(L-aspartic acid)₂]⁺²(Cl₂)⁻²]
T₂ value ([1]; 86 µM final concentration): 190 ± 12 ms | T₁ value ([1]; 86 µM final concentration): 251 ± 12 ms | R₁ [1]: 46.3 mM⁻¹ s⁻¹ | R₂ [1]: 61.2 mM⁻¹ s⁻¹ | T₁ changed by (repeat measurement) [1]: did not change | T₂ changed by (repeat measurement) [1]: 3% | T₂ relaxivity in plasma, fold greater than GdDTPA [1]: 12.8 fold | T₁ relaxivity in plasma, fold greater than GdDTPA [1]: 9.7 fold | spin-lattice (T₁) relaxation value [2, 4]: 116 ± 3 ms | spin-spin (T₂) relaxation value [2, 4]: 28 ± 1 ms | millimolar relaxivity for T₁ [2]: 9.58 mM⁻¹ s⁻¹ | millimolar relaxivity for T₂ [2]: 39.7 mM⁻¹ s⁻¹

N[C@@H](CS)C(=O)O.N[C@@H](CS)C(=O)O.O.O.[Cl-].[Cl-].[Mn+2] [Manganese(II)·(H₂O)₂·(L-cysteine)₂]⁺²(Cl₂)⁻²]
T₂ value ([1]; 92 µM final concentration): 190 ± 17 ms | T₁ value ([1]; 92 µM final concentration): 247 ± 14 ms | R₁ [1]: 44.0 mM⁻¹ s⁻¹ | R₂ [1]: 57.2 mM⁻¹ s⁻¹ | T₁ changed by (repeat measurement) [1]: 4% | T₂ changed by (repeat measurement) [1]: 1% | T₂ relaxivity in plasma, fold greater than GdDTPA [1]: 11.9 fold | T₁ relaxivity in plasma, fold greater than GdDTPA [1]: 9.2 fold | spin-lattice (T₁) relaxation value [2, 5]: 105 ± 4 ms | spin-spin (T₂) relaxation value [2, 5]: 25 ± 1 ms | millimolar relaxivity for T₁ [2]: 9.82 mM⁻¹ s⁻¹ | millimolar relaxivity for T₂ [2]: 41.2 mM⁻¹ s⁻¹

NCCCC[C@H](N)C(=O)O.NCCCC[C@H](N)C(=O)O.O.O.[Cl-].[Cl-].[Mn+2] [Manganese(II)·(H₂O)₂·(L-lysine)₂]⁺²(Cl₂)⁻²]
T₂ value ([1]; 92 µM final concentration): 192 ± 8 ms | T₁ value ([1]; 92 µM final concentration): 230 ± 9 ms | R₁ [1]: 47.3 mM⁻¹ s⁻¹ | R₂ [1]: 56.6 mM⁻¹ s⁻¹ | T₁ changed by (repeat measurement) [1]: 3% | T₂ changed by (repeat measurement) [1]: 3% | T₂ relaxivity in plasma, fold greater than GdDTPA [1]: 11.8 fold | T₁ relaxivity in plasma, fold greater than GdDTPA [1]: 9.9 fold | spin-lattice (T₁) relaxation value [2, 5]: 108 ± 9 ms | spin-spin (T₂) relaxation value [2, 5]: 26 ± 1 ms | millimolar relaxivity for T₁ [2]: 9.55 mM⁻¹ s⁻¹ | millimolar relaxivity for T₂ [2]: 39.7 mM⁻¹ s⁻¹

CSCC[C@H](N)C(=O)O.CSCC[C@H](N)C(=O)O.O.O.[Cl-].[Cl-].[Mn+2] [Manganese(II)·(H₂O)₂·(L-methionine)₂]⁺²(Cl₂)⁻²]
T₂ value ([1]; 92 µM final concentration): 202 ± 9 ms | T₁ value ([1]; 92 µM final concentration): 257 ± 18 ms | R₁ [1]: 42.3 mM⁻¹ s⁻¹ | R₂ [1]: 52.8 mM⁻¹ s⁻¹ | T₁ changed by (repeat measurement) [1]: 1% | T₂ changed by (repeat measurement) [1]: 5% | T₂ relaxivity in plasma, fold greater than GdDTPA [1]: 11.2 fold | T₁ relaxivity in plasma, fold greater than GdDTPA [1]: 8.8 fold | spin-lattice (T₁) relaxation value [2, 5]: 106 ± 2 ms | spin-spin (T₂) relaxation value [2, 5]: 27 ± 1 ms | millimolar relaxivity for T₁ [2]: 9.73 mM⁻¹ s⁻¹ | millimolar relaxivity for T₂ [2]: 38.2 mM⁻¹ s⁻¹

O.O.O=C(O)[C@@H]1CCCN1.O=C(O)[C@@H]1CCCN1.[Cl-].[Cl-].[Mn+2] [Manganese(II)·(H₂O)₂·(L-proline)₂]⁺²(Cl₂)⁻²]
T₂ value ([1]; 93 µM final concentration): 202 ± 12 ms | T₁ value ([1]; 93 µM final concentration): 234 ± 12 ms | R₁ [1]: 46.5 mM⁻¹ s⁻¹ | R₂ [1]: 53.2 mM⁻¹ s⁻¹ | T₁ changed by (repeat measurement) [1]: 5% | T₂ changed by (repeat measurement) [1]: 12% | T₂ relaxivity in plasma, fold greater than GdDTPA [1]: 11.1 fold | T₁ relaxivity in plasma, fold greater than GdDTPA [1]: 9.7 fold | spin-lattice (T₁) relaxation value [2, 6]: 106 ± 4 ms | spin-spin (T₂) relaxation value [2, 6]: 26 ± 2 ms | millimolar relaxivity for T₁ [2]: 9.63 mM⁻¹ s⁻¹ | millimolar relaxivity for T₂ [2]: 39.3 mM⁻¹ s⁻¹

C[NH2+]CC(=O)[O-].C[NH2+]CC(=O)[O-].O.O.[Cl-].[Cl-].[Mn+2] [Manganese(II)·(H₂O)₂·(L-sarcosine)₂]⁺²(Cl₂)⁻²]
T₂ value ([1]; 93 µM final concentration): 194 ± 16 ms | T₁ value ([1]; 93 µM final concentration): 232 ± 2 ms | R₁ [1]: 46.4 mM⁻¹ s⁻¹ | R₂ [1]: 55.4 mM⁻¹ s⁻¹ | T₁ changed by (repeat measurement) [1]: 6% | T₂ changed by (repeat measurement) [1]: 4% | T₂ relaxivity in plasma, fold greater than GdDTPA [1]: 11.5 fold | T₁ relaxivity in plasma, fold greater than GdDTPA [1]: 9.7 fold | spin-lattice (T₁) relaxation value [2, 6]: 111 ± 2 ms | spin-spin (T₂) relaxation value [2, 6]: 26 ± 1 ms | millimolar relaxivity for T₁ [2]: 9.19 mM⁻¹ s⁻¹ | millimolar relaxivity for T₂ [2]: 39.3 mM⁻¹ s⁻¹

N[C@@H](CO)C(=O)O.N[C@@H](CO)C(=O)O.O.O.[Cl-].[Cl-].[Mn+2] [Manganese(II)·(H₂O)₂·(L-serine)₂]⁺²(Cl₂)⁻²]
T₂ value ([1]; 93 µM final concentration): 189 ± 6 ms | T₁ value ([1]; 93 µM final concentration): 238 ± 9 ms | R₁ [1]: 45.2 mM⁻¹ s⁻¹ | R₂ [1]: 56.9 mM⁻¹ s⁻¹ | T₁ changed by (repeat measurement) [1]: 3% | T₂ changed by (repeat measurement) [1]: 2% | T₂ relaxivity in plasma, fold greater than GdDTPA [1]: 11.9 fold | T₁ relaxivity in plasma, fold greater than GdDTPA [1]: 9.4 fold | spin-lattice (T₁) relaxation value [2, 7]: 111 ± 2 ms | spin-spin (T₂) relaxation value [2, 7]: 27 ± 1 ms | millimolar relaxivity for T₁ [2]: 9.19 mM⁻¹ s⁻¹ | millimolar relaxivity for T₂ [2]: 37.8 mM⁻¹ s⁻¹

C[C@@H](O)[C@H](N)C(=O)O.C[C@@H](O)[C@H](N)C(=O)O.O.O.[Cl-].[Cl-].[Mn+2] [Manganese(II)·(H₂O)₂·(L-threonine)₂]⁺²(Cl₂)⁻²]
T₂ value ([1]; 92 µM final concentration): 196 ± 17 ms | T₁ value ([1]; 92 µM final concentration): 241 ± 7 ms | R₁ [1]: 45.1 mM⁻¹ s⁻¹ | R₂ [1]: 55.5 mM⁻¹ s⁻¹ | T₁ changed by (repeat measurement) [1]: 1% | T₂ changed by (repeat measurement) [1]: 11% | T₂ relaxivity in plasma, fold greater than GdDTPA [1]: 11.6 fold | T₁ relaxivity in plasma, fold greater than GdDTPA [1]: 9.4 fold | spin-lattice (T₁) relaxation value [2, 5]: 105 ± 1 ms | spin-spin (T₂) relaxation value [2, 5]: 28 ± 1 ms | millimolar relaxivity for T₁ [2]: 9.82 mM⁻¹ s⁻¹ | millimolar relaxivity for T₂ [2]: 36.8 mM⁻¹ s⁻¹

NC(CO)C(=O)O.O.O.O.O=C([O-])C(O)C(O)C(O)C(O)CO.O=C([O-])C(O)C(O)C(O)C(O)CO.[Mn+2] [[Manganese(II)(H₂O)₃-L-Serine]Digluconate]
spin-lattice (T₁) relaxation value ([2]; 1 mM solution in water): 107 ms | spin-spin (T₂) relaxation value ([2]; 1 mM solution in water): 27 ms | millimolar relaxivity for T₁ [2]: 9.35 mM⁻¹ s⁻¹ | millimolar relaxivity for T₂ [2]: 37.0 mM⁻¹ s⁻¹

CC(=O)[O-].C[C@H](N)C(=O)O.C[C@H](N)C(=O)O.C[C@H](N)C(=O)O.O.[I-].[Mn+2] [[Manganese(II)H₂O(L-Alanine)₃](Acetate Iodide)]
spin-lattice (T₁) relaxation value ([2]; 1 mM solution in water): 104 ms | spin-spin (T₂) relaxation value ([2]; 1 mM solution in water): 26 ms | millimolar relaxivity for T₁ [2]: 9.62 mM⁻¹ s⁻¹ | millimolar relaxivity for T₂ [2]: 38.5 mM⁻¹ s⁻¹

CC(=O)[O-].CC(=O)[O-].NCC(=O)O.NCC(=O)O.NCC(=O)O.NCC(=O)O.[Mn+2] [[Manganese(II)·(Glycine)₄]Diacetate]
Relaxivity (mM⁻¹sec⁻¹) Spin-Lattice ([2]; 1 mM solution in water): 8.00 mM⁻¹ s⁻¹ | Relaxivity (mM⁻¹sec⁻¹) Spin-Spin ([2]; 1 mM solution in water): 33.3 mM⁻¹ s⁻¹

CC(=O)[O-].CC(=O)[O-].NCC(=O)O.NCC(=O)O.NCC(=O)O.O.[Mn+2] [[Manganese(II)·(H₂O)·(Glycine)₃]Diacetate]
Relaxivity (mM⁻¹sec⁻¹) Spin-Lattice ([2]; 1 mM solution in water): 8.47 mM⁻¹ s⁻¹ | Relaxivity (mM⁻¹sec⁻¹) Spin-Spin ([2]; 1 mM solution in water): 33.3 mM⁻¹ s⁻¹

CC(=O)[O-].CC(=O)[O-].NCC(=O)O.O.O.O.[Mn+2] [[Manganese(II)·(H₂O)₃]·(Glycine)]Diacetate]
Relaxivity (mM⁻¹sec⁻¹) Spin-Lattice ([2]; 1 mM solution in water): 8.26 mM⁻¹ s⁻¹ | Relaxivity (mM⁻¹sec⁻¹) Spin-Spin ([2]; 1 mM solution in water): 33.3 mM⁻¹ s⁻¹ | Spin-Spin Relaxivity ([2]; 37°C): 33.30 mM⁻¹ s⁻¹

CC(=O)[O-].CC(=O)[O-].O.O.O.O.[Mn+2] [[Manganese(II)·(H₂O)₄]Diacetate, reference compound]
Relaxivity (mM⁻¹sec⁻¹) Spin-Lattice ([2]; 1 mM solution in water): 9.09 mM⁻¹ s⁻¹ | Relaxivity (mM⁻¹sec⁻¹) Spin-Spin ([2]; 1 mM solution in water): 33.3 mM⁻¹ s⁻¹ | Spin-Spin Relaxivity ([2]; 37°C): 33.30 mM⁻¹ s⁻¹

NCC(=O)[O-].NCC(=O)[O-].O.O.O.O.O.O.O=S(=O)([O-])[O-].[Mn+2].[Mn+2] [[Manganese(II)·CH₂(NH₂)COO-]₂⁺¹(SO₄^=), reference compound]
Spin-Spin Relaxivity ([2]; 37°C): 2.92 mM⁻¹ s⁻¹

NCC(=O)O.N[C@@H](CO)C(=O)O.N[C@@H](Cc1c[nH]cn1)C(=O)O.O=C(O)[C@@H]1CCCN1.O=S(=O)([O-])[O-].[Mn+2] [[Manganese(II)·Glycine·L-Serine·L-Histidine·L-Proline](Sulfate)]
spin-lattice (T₁) relaxation value ([2]; 1 mM solution in water): 103 ms | spin-spin (T₂) relaxation value ([2]; 1 mM solution in water): 28 ms | millimolar relaxivity for T₁ [2]: 9.71 mM⁻¹ s⁻¹ | millimolar relaxivity for T₂ [2]: 35.7 mM⁻¹ s⁻¹

[Manganese(II)(H₂O)₂(L-serine)₂](Glycerophosphate)
spin-lattice (T₁) relaxation value ([2]; 1 mM solution in water): 147 ms | spin-spin (T₂) relaxation value ([2]; 1 mM solution in water): 54 ms | millimolar relaxivity for T₁ [2]: 6.80 mM⁻¹ s⁻¹ | millimolar relaxivity for T₂ [2]: 18.5 mM⁻¹ s⁻¹
